For the assay, the system named is sprouting from wild-type, TFΔCT and PAR-2-deficient aortas. The assay can be described thus: ex vivo angiogenesis assay (aortic ring sprouting in Matrigel). The format is cell-based, mouse. Particulars: for sprouting induced by single factor replacing serum: wild-type and TFΔCT aortas, EGM without serum, day 4, growth factors 20 ng/ml, VIIa 50 nM (FIG. 2c). As for the experimental part: Angiogenesis assays. The ex vivo angiogenesis assay was adopted from the rat aortic sprouting model described by Masson et al. Biol. Proced. […] Thoracic aortas from 8-11 week old wild-type, TFΔCT, PAR-2-deficient, and TFΔCT/PAR-2-deficient mice of either sex were embedded in Matrigel, and overlaid with EGM supplemented with 5% serum, growth factors, or inhibitors at the following concentrations: VEGF, bFGF, and PDGF: 20 ng/ml; hirudin: 500 nM, VIIai: […], NAPc2: […], NAP5: 1 μM, VIIa: 50 nM. In most cases, the number of aortic sprouts was determined at day 3 and 4 without knowledge of the genotype. Aortic ring RNA was isolated by Trizol (Invitrogen) extraction using standard procedures, digested with DNAaseI, followed by RT-PCR for β-actin and TF. […] Tests used 2 different virus doses, referred to as high (1.1×10^10 virus particles/ml) and low (5×10^9 particles/ml). For confocal fluorescence microscopy, aortic pieces with a minimum of surrounding Matrigel were fixed with 4% paraformaldehyde and methanol, incubated with primary and secondary antibodies (24 hours each), and mounted in anti-fade medium (Vector laboratories). Alternatively, cryosections of OCT-embedded aortas were fixed with acetone and stained as described above.

Regarding VEGF, the “sprouting induced by single factor replacing serum” value is “None of these factors promoted substantial sprouting”. The “sprouting of aortas stimulated with VEGF in the absence of serum” value (VEGF 20 ng/ml, no serum, day 3 (FIG. 2a)) is listed as “very limited sprouting”. The “difference in sprouting TFΔCT versus wild-type aortas with serum supplemented with VEGF” value (serum plus VEGF 20 ng/ml, day 3 (FIG. 2a)) is “did not abolish the difference in sprouting”.
For the substance bFGF: pro-angiogenic growth factor, the “sprouting induced by single factor replacing serum” value is “None of these factors promoted substantial sprouting”.
The same measure, in the same setting: the same measure for “PDGF-AA: selective agonist for PDGF receptor a”: “None of these factors promoted substantial sprouting”.
Take hirudin [reference compound]: the “effect of protease inhibitor on aortic sprouting” value (wild-type and TFΔCT aortas in serum, 3 days, hirudin 500 nM, NAP5 1 μM (FIG. 2b)) is “no effect on sprouting”.

These data come from patent publication US20070207154A1, “METHOD OF MODULATING VASCULARIZATION” (priority 2004, published 2007).
